According to patent US20120029187A1, “HALOALKYLSULFONANILIDE DERIVATIVE” (Nissan Chemical Industries, Ltd., priority 2009, published 2012):

Key:
Type in all cases: in vivo
ducksalad [1] = assay: Test Example 1: herbicidal effects in preemergence treatment under submerged conditions; conditions: dose 2.52 g/a
Method in brief: (§1)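 Flooded-paddy preemergence assay; EC diluted with water, surface-applied at weed seeding; doses g/a; rice transplanted at 2.5 leaves; 0–5 mortality score after 3 weeks.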

barnyardgrass [2] = assay: as above; conditions: dose 2.52 g/a
Method in brief: as §1

bulrush [3] = assay: as above; conditions: dose 2.52 g/a
Method in brief: as §1

transplanted rice = assay: Test Example 1: preemergence treatment under submerged conditions, effect on crop; conditions: dose 2.52 g/a
Method in brief: as §1

ducksalad [4] = assay: Test Example 2: herbicidal effects during the vegetation period under submerged conditions; conditions: treatment during the vegetation period under submerged conditions; dose 2.52 g/a
Method in brief: (§2)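 Barnyardgrass, bulrush and ducksalad were co-sown in alluvial soil flooded to 4 cm and grown in a greenhouse at 25 to 30° C. At the 1- or 2-leaf stage, water-diluted emulsifiable concentrates went onto the water surface at set doses (g/a). Herbicidal effect was scored three weeks later on a graded scale.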

barnyardgrass [5] = assay: as above; conditions: treatment during the vegetation period under submerged conditions; dose 2.52 g/a
Method in brief: as §2

bulrush [6] = assay: as above; conditions: treatment during the vegetation period under submerged conditions; dose 2.52 g/a
Method in brief: as §2

common ragweed [7] = assay: Test Example 3: herbicidal effects in soil treatment; conditions: dose 3.2 g/a
Method in brief: (§3)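 Seeds were sown in sterilized diluvial soil and covered with about 1.5 cm of soil. Compounds, formulated as emulsifiable concentrates and diluted with water, were sprayed evenly over the soil surface at set doses in g/a. Herbicidal effect was scored on a rating scale three weeks later.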

water foxtail [8] = assay: as above; conditions: dose 3.2 g/a
Method in brief: as §3

velvetleaf [9] = assay: as above; conditions: dose 3.2 g/a
Method in brief: as §3

common chickweed [10] = assay: as above; conditions: dose 3.2 g/a
Method in brief: as §3

barnyardgrass [11] = assay: as above; conditions: dose 3.2 g/a
Method in brief: as §3

Italian ryegrass [12] = assay: as above; conditions: dose 3.2 g/a
Method in brief: as §3

common lambsquater [13] = assay: as above; conditions: dose 3.2 g/a
Method in brief: as §3

giant foxtail [14] = assay: as above; conditions: dose 3.2 g/a
Method in brief: as §3

beadstraw [15] = assay: as above; conditions: dose 3.2 g/a
Method in brief: as §3

posumbu knotweed [16] = assay: as above; conditions: dose 3.2 g/a
Method in brief: as §3

redroot pigweed [17] = assay: as above; conditions: dose 3.2 g/a
Method in brief: as §3

large crabgrass [18] = assay: as above; conditions: dose 3.2 g/a
Method in brief: as §3

common ragweed [19] = assay: Test Example 4: herbicidal effect in foliage treatment; conditions: dose 3.2 g/a, three weeks after the application
Method in brief: (§4)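 Post-emergence foliar spray of water-diluted emulsifiable concentrate at predetermined doses (g per are), applied to plants 14 days after sowing in sterile diluvial soil (greenhouse, 25 to 30° C). Visual scale rating of effect taken 3 weeks later.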

water foxtail [20] = assay: as above; conditions: dose 3.2 g/a, three weeks after the application
Method in brief: as §4

velvetleaf [21] = assay: as above; conditions: dose 3.2 g/a, three weeks after the application
Method in brief: as §4

common chickweed [22] = assay: as above; conditions: dose 3.2 g/a, three weeks after the application
Method in brief: as §4

barnyardgrass [23] = assay: as above; conditions: dose 3.2 g/a, three weeks after the application
Method in brief: as §4

Italian ryegrass [24] = assay: as above; conditions: dose 3.2 g/a, three weeks after the application
Method in brief: as §4

common lambsquater [25] = assay: as above; conditions: dose 3.2 g/a, three weeks after the application
Method in brief: as §4

giant foxtail [26] = assay: as above; conditions: dose 3.2 g/a, three weeks after the application
Method in brief: as §4

beadstraw [27] = assay: as above; conditions: dose 3.2 g/a, three weeks after the application
Method in brief: as §4

posumbu knotweed [28] = assay: as above; conditions: dose 3.2 g/a, three weeks after the application
Method in brief: as §4

redroot pigweed [29] = assay: as above; conditions: dose 3.2 g/a, three weeks after the application
Method in brief: as §4

large crabgrass [30] = assay: as above; conditions: dose 3.2 g/a, three weeks after the application
Method in brief: as §4

SMILES	C: ducksalad, herbicidal effect (evaluation scale 0-5) (ducksalad [1])	A: barnyardgrass, herbicidal effect (evaluation scale 0-5) (barnyardgrass [2])	B: bulrush, herbicidal effect (evaluation scale 0-5) (bulrush [3])	a: transplanted rice, effect on crop (evaluation scale 0-5) (transplanted rice)	C: ducksalad, herbicidal effect (evaluation scale 0-5) (ducksalad [4])	A: barnyardgrass, herbicidal effect (evaluation scale 0-5) (barnyardgrass [5])	B: bulrush, herbicidal effect (evaluation scale 0-5) (bulrush [6])	J: common ragweed, herbicidal effect (common ragweed [19])	G: water foxtail, herbicidal effect (water foxtail [20])	I: velvetleaf, herbicidal effect (velvetleaf [21])	N: common chickweed, herbicidal effect (common chickweed [22])	A: barnyardgrass, herbicidal effect (barnyardgrass [23])	H: Italian ryegrass, herbicidal effect (Italian ryegrass [24])	L: common lambsquater, herbicidal effect (common lambsquater [25])	E: giant foxtail, herbicidal effect (giant foxtail [26])	M: posumbu knotweed, herbicidal effect (posumbu knotweed [28])	K: redroot pigweed, herbicidal effect (redroot pigweed [29])	D: large crabgrass, herbicidal effect (large crabgrass [30])	further results
CCOC(=O)N(c1ccccc1CN1OCC(CC)OC1=O)S(=O)(=O)C(F)(F)F (stereo not shown) [III-6]	5 (mortality of 90% or above (nearly complete death))	5 (mortality of 90% or above (nearly complete death))	5 (mortality of 90% or above (nearly complete death))	0 (mortality of less than 5% (almost ineffective))	5 (mortality of 90% or above (nearly complete death))	5 (mortality of 90% or above (nearly complete death))	5 (mortality of 90% or above (nearly complete death))	4 (mortality of at least 70% and less than 90%)	5 (mortality of 90% or above (nearly complete death))	3 (mortality of at least 40% and less than 70%)	4 (mortality of at least 70% and less than 90%)	5 (mortality of 90% or above (nearly complete death))	2 (mortality of at least 20% and less than 40%)	3 (mortality of at least 40% and less than 70%)	5 (mortality of 90% or above (nearly complete death))	5 (mortality of 90% or above (nearly complete death))	4 (mortality of at least 70% and less than 90%)	3 (mortality of at least 40% and less than 70%)	herbicidal effect, J: common ragweed (common ragweed [7]): 4 (mortality of at least 70% and less than 90%); herbicidal effect, G: water foxtail (water foxtail [8]): 5 (mortality of 90% or above (nearly complete death)); herbicidal effect, I: velvetleaf (velvetleaf [9]): 5 (mortality of 90% or above (nearly complete death)); herbicidal effect, N: common chickweed (common chickweed [10]): 5 (mortality of 90% or above (nearly complete death)); herbicidal effect, A: barnyardgrass (barnyardgrass [11]): 5 (mortality of 90% or above (nearly complete death)); herbicidal effect, H: Italian ryegrass (Italian ryegrass [12]): 5 (mortality of 90% or above (nearly complete death)); herbicidal effect, L: common lambsquater (common lambsquater [13]): 4 (mortality of at least 70% and less than 90%); herbicidal effect, E: giant foxtail (giant foxtail [14]): 4 (mortality of at least 70% and less than 90%); herbicidal effect, O: beadstraw (beadstraw [15]): 4 (mortality of at least 70% and less than 90%); herbicidal effect, M: posumbu knotweed (posumbu knotweed [16]): 5 (mortality of 90% or above (nearly complete death)); herbicidal effect, K: redroot pigweed (redroot pigweed [17]): 3 (mortality of at least 40% and less than 70%); herbicidal effect, D: large crabgrass (large crabgrass [18]): 5 (mortality of 90% or above (nearly complete death)); O: beadstraw, herbicidal effect (beadstraw [27]): 3 (mortality of at least 40% and less than 70%)
CCOC(=O)N(c1ccccc1CN1C(=O)CC(C)(C)OC1C)S(=O)(=O)C(F)(F)F (stereo not shown) [II-74]	5 (mortality of 90% or above (nearly complete death))	5 (mortality of 90% or above (nearly complete death))	5 (mortality of 90% or above (nearly complete death))	3 (mortality of at least 40% and less than 70%)	5 (mortality of 90% or above (nearly complete death))	5 (mortality of 90% or above (nearly complete death))	5 (mortality of 90% or above (nearly complete death))	3 (mortality of at least 40% and less than 70%)	5 (mortality of 90% or above (nearly complete death))	5 (mortality of 90% or above (nearly complete death))	4 (mortality of at least 70% and less than 90%)	5 (mortality of 90% or above (nearly complete death))	5 (mortality of 90% or above (nearly complete death))	3 (mortality of at least 40% and less than 70%)	3 (mortality of at least 40% and less than 70%)	4 (mortality of at least 70% and less than 90%)	0 (mortality of less than 5% (almost ineffective))	5 (mortality of 90% or above (nearly complete death))	J: common ragweed, herbicidal effect (evaluation scale 0-5) (common ragweed [7]): 2 (mortality of at least 20% and less than 40%); G: water foxtail, herbicidal effect (evaluation scale 0-5) (water foxtail [8]): 5 (mortality of 90% or above (nearly complete death)); I: velvetleaf, herbicidal effect (evaluation scale 0-5) (velvetleaf [9]): 5 (mortality of 90% or above (nearly complete death)); N: common chickweed, herbicidal effect (evaluation scale 0-5) (common chickweed [10]): 3 (mortality of at least 40% and less than 70%); A: barnyardgrass, herbicidal effect (evaluation scale 0-5) (barnyardgrass [11]): 5 (mortality of 90% or above (nearly complete death)); H: Italian ryegrass, herbicidal effect (evaluation scale 0-5) (Italian ryegrass [12]): 4 (mortality of at least 70% and less than 90%); L: common lambsquater, herbicidal effect (evaluation scale 0-5) (common lambsquater [13]): 1 (mortality of at least 5% and less than 20%); E: giant foxtail, herbicidal effect (evaluation scale 0-5) (giant foxtail [14]): 5 (mortality of 90% or above (nearly complete death)); O: beadstraw, herbicidal effect (evaluation scale 0-5) (beadstraw [15]): 4 (mortality of at least 70% and less than 90%); M: posumbu knotweed, herbicidal effect (evaluation scale 0-5) (posumbu knotweed [16]): 5 (mortality of 90% or above (nearly complete death)); K: redroot pigweed, herbicidal effect (evaluation scale 0-5) (redroot pigweed [17]): 0 (mortality of less than 5% (almost ineffective)); D: large crabgrass, herbicidal effect (evaluation scale 0-5) (large crabgrass [18]): 5 (mortality of 90% or above (nearly complete death))
